Earlier results as cited in patent US20190316065A1, “NATURALLY-DERIVED ANTIMICROBIAL CLEANING SOLUTIONS” (ProNatural Brands LLC, priority 2018, published 2019).

Details: standard pKa

O=C(O)CC(O)(CC(=O)O)C(=O)O [citric acid]
pKa1: 3.1
pKa2: 4.8
pKa3: ≈ 6.4
